Assay results reported in PubChem BioAssay AID248 (DTP/NCI, 2004).
Several values for one entry are separate records, joined by “and”; a condition that tells them apart may be missing. Equal entries are not always repeated. Inconclusive results and toxic doses are left out. Cut-off read from the data, not from the text of the source: active = T/C of 150% or more; inactive = T/C below 125%.

System: L1210 leukemia ip in BDF1 mice, survival T/C
Experiment: NCI In Vivo Anticancer Drug Screen. Data for tumor model L1210 Leukemia (intraperitoneal) in B6D2F1 (BDF1) mice
Details: higher = longer survival
Procedure, shortened: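 Transplanted-tumor mice were given test agent; controls received vehicle only. Survival readings from the two groups were divided (treated over control).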

[1] = endpoint: mean survival time, dose: 200.0 mg/kg/injection, schedule: Q01DX001 (ip), vehicle: saline
[2] = endpoint: mean survival time, dose: 400.0 mg/kg/injection, schedule: Q01DX001 (ip), vehicle: saline
[3] = endpoint: mean survival time, dose: 100.0 mg/kg/injection, schedule: Q04DX003 (ip), vehicle: carboxymethylcellulose (CMC)
[4] = endpoint: mean survival time, dose: 100.0 mg/kg/injection, schedule: Q01DX009 (ip), vehicle: Klucel (hydroxypropylcellulose) (HPC)
[5] = endpoint: mean survival time, dose: 200.0 mg/kg/injection, schedule: Q01DX009 (ip), vehicle: Klucel (hydroxypropylcellulose) (HPC)
[6] = endpoint: mean survival time, dose: 50.0 mg/kg/injection, schedule: Q01DX009 (ip), vehicle: saline with Tween-80
[7] = endpoint: mean survival time, dose: 100.0 mg/kg/injection, schedule: Q01DX001 (ip), vehicle: saline
[8] = endpoint: mean survival time, dose: 100.0 mg/kg/injection, schedule: Q04DX003 (ip), vehicle: saline
[9] = endpoint: mean survival time, dose: 200.0 mg/kg/injection, schedule: Q04DX003 (ip), vehicle: saline
[10] = endpoint: mean survival time, dose: 400.0 mg/kg/injection, schedule: Q04DX003 (ip), vehicle: saline
[11] = endpoint: mean survival time, dose: 100.0 mg/kg/injection, schedule: Q04DX002 (ip), vehicle: Klucel (hydroxypropylcellulose) (HPC)
[12] = endpoint: mean survival time, dose: 200.0 mg/kg/injection, schedule: Q04DX002 (ip), vehicle: Klucel (hydroxypropylcellulose) (HPC)
[13] = endpoint: mean survival time, dose: 400.0 mg/kg/injection, schedule: Q04DX002 (ip), vehicle: Klucel (hydroxypropylcellulose) (HPC)
[14] = endpoint: mean survival time, dose: 100.0 mg/kg/injection, schedule: Q04DX002 (ip), vehicle: saline with Tween-80
[15] = endpoint: mean survival time, dose: 200.0 mg/kg/injection, schedule: Q04DX002 (ip), vehicle: saline with Tween-80
[16] = endpoint: mean survival time, dose: 100.0 mg/kg/injection, schedule: Q01DX009 (ip), vehicle: saline with Tween-80
[17] = endpoint: mean survival time, dose: 200.0 mg/kg/injection, schedule: Q01DX009 (ip), vehicle: saline with Tween-80

Measured: T/C

Cc1ccc2c3c1C(O)C(C(N)=O)C3CCS2 (centres undefined)
inactive: [1] 89 % of control | [2] 106 % of control

CCCCCCCCS(=O)(=O)CCO
inactive: endpoint: mean survival time, dose: 100.0 mg/kg/injection, schedule: Q01DX009 (ip), vehicle: carboxymethylcellulose (CMC) 93 % of control | [3] 106 % of control | endpoint: mean survival time, dose: 200.0 mg/kg/injection, schedule: Q01DX009 (ip), vehicle: carboxymethylcellulose (CMC) 90 % of control | endpoint: mean survival time, dose: 200.0 mg/kg/injection, schedule: Q04DX003 (ip), vehicle: carboxymethylcellulose (CMC) 101 % of control | endpoint: mean survival time, dose: 400.0 mg/kg/injection, schedule: Q01DX009 (ip), vehicle: carboxymethylcellulose (CMC) 95 % of control | endpoint: mean survival time, dose: 400.0 mg/kg/injection, schedule: Q04DX003 (ip), vehicle: carboxymethylcellulose (CMC) 106 % of control

Cc1cccc(C(=O)NNC(=O)c2cccc(C)c2)c1
inactive: [4] 106 % of control | [5] 108 % of control

CCCCNC(C)(C)C(SSSC(C)=O)c1ccco1 (centres undefined)
inactive: endpoint: mean survival time, dose: 12.5 mg/kg/injection, schedule: Q01DX009 (ip), vehicle: saline with Tween-80 100 % of control | endpoint: mean survival time, dose: 12.5 mg/kg/injection, schedule: Q04DX003 (ip), vehicle: saline with Tween-80 102 % of control | endpoint: mean survival time, dose: 25.0 mg/kg/injection, schedule: Q01DX009 (ip), vehicle: saline with Tween-80 104 % of control | endpoint: mean survival time, dose: 25.0 mg/kg/injection, schedule: Q04DX003 (ip), vehicle: saline with Tween-80 106 % of control | [6] 108 % of control | endpoint: mean survival time, dose: 50.0 mg/kg/injection, schedule: Q04DX003 (ip), vehicle: saline with Tween-80 96 % of control | endpoint: mean survival time, dose: 100.0 mg/kg/injection, schedule: Q04DX003 (ip), vehicle: saline with Tween-80 102 % of control

COc1ccc(C(=O)OC(c2ccccc2)c2ccccc2)cc1
inactive: [7] 98 % of control | [1] 100 % of control | [2] 89 % of control

O=C1CCC(N2C(=O)C3CCCCC3C2=O)C(=O)N1 (centres undefined)
inactive: [8] 97 % of control | [9] 93 % of control | [10] 101 % of control

CCC(C)(C)C(=O)Nc1cccc(OC(=O)NC)c1
inactive: endpoint: mean survival time, dose: 400.0 mg/kg/injection, schedule: Q01DX009 (ip), vehicle: saline with Tween-80 93 % of control

Cc1ccc(S(=O)(=O)N(CCCc2c(C)nc(N)[nH]c2=O)Cc2ccc([N+](=O)[O-])cc2)cc1
inactive: endpoint: mean survival time, dose: 75.0 mg/kg/injection, schedule: Q01DX001 (ip), vehicle: Klucel (hydroxypropylcellulose) (HPC) 102 % of control | endpoint: mean survival time, dose: 150.0 mg/kg/injection, schedule: Q01DX001 (ip), vehicle: Klucel (hydroxypropylcellulose) (HPC) 97 % of control | endpoint: mean survival time, dose: 300.0 mg/kg/injection, schedule: Q01DX001 (ip), vehicle: Klucel (hydroxypropylcellulose) (HPC) 103 % of control

CCOc1ccccc1N1C(=O)CSC1=S
inactive: endpoint: mean survival time, dose: 200.0 mg/kg/injection, schedule: Q04DX002 (ip), vehicle: other 117 % of control | endpoint: mean survival time, dose: 400.0 mg/kg/injection, schedule: Q04DX002 (ip), vehicle: other 95 % of control

Nc1nnnn1CC(Br)CBr (centres undefined)
inactive: endpoint: mean survival time, dose: 100.0 mg/kg/injection, schedule: Q04DX002 (ip), vehicle: saline 104 % of control | endpoint: mean survival time, dose: 200.0 mg/kg/injection, schedule: Q04DX002 (ip), vehicle: saline 101 % of control | endpoint: mean survival time, dose: 400.0 mg/kg/injection, schedule: Q04DX002 (ip), vehicle: saline 90 % of control

N#Cc1cccc(CS(=O)(=O)c2ccccc2)c1
inactive: [11] 104 % of control | [12] 96 % of control | [13] 89 % of control

COc1ccc(CCNC2CC3CCC2(C)C3(C)C)cc1OC (centres undefined)
inactive: [7] 100 % of control and 107 % of control | [1] 96 % of control | [2] 96 % of control

O=C1NNC(c2ccccc2)C1c1ccccc1 (centres undefined)
inactive: endpoint: mean survival time, dose: 100.0 mg/kg/injection, schedule: Q01DX001 (ip), vehicle: carboxymethylcellulose (CMC) 93 % of control | endpoint: mean survival time, dose: 200.0 mg/kg/injection, schedule: Q01DX001 (ip), vehicle: carboxymethylcellulose (CMC) 95 % of control | endpoint: mean survival time, dose: 400.0 mg/kg/injection, schedule: Q01DX001 (ip), vehicle: carboxymethylcellulose (CMC) 97 % of control

C[n+]1c2cc(N)ccc2cc2ccc(N)cc21
inactive: endpoint: mean survival time, dose: 3.0 mg/kg/injection, schedule: Q04DX003 (ip), vehicle: saline 108 % of control | endpoint: mean survival time, dose: 3.5 mg/kg/injection, schedule: Q01DX009 (ip), vehicle: saline 111 % of control | endpoint: mean survival time, dose: 5.3 mg/kg/injection, schedule: Q01DX009 (ip), vehicle: saline 118 % of control | endpoint: mean survival time, dose: 6.0 mg/kg/injection, schedule: Q04DX003 (ip), vehicle: saline 105 % of control | endpoint: mean survival time, dose: 6.25 mg/kg/injection, schedule: Q01DX009 (ip), vehicle: saline 122 % of control | endpoint: mean survival time, dose: 12.0 mg/kg/injection, schedule: Q04DX003 (ip), vehicle: saline 113 % of control | endpoint: mean survival time, dose: 12.5 mg/kg/injection, schedule: Q04DX003 (ip), vehicle: saline 98 % of control

CC1(C)C2CCC1(C)C(C(=O)C(F)(F)F)C2=O.CC1(C)C2CCC1(C)C(C(=O)C(F)(F)F)C2=O.CC1(C)C2CCC1(C)C(C(=O)C(F)(F)F)C2=O.[Eu] (centres undefined)
inactive: endpoint: mean survival time, dose: 50.0 mg/kg/injection, schedule: Q04DX002 (ip), vehicle: saline with Tween-80 105 % of control | [14] 94 % of control | [15] 102 % of control

CC1=CC(C)(C)NC(=S)N1
inactive: [4] 97 % of control | [8] 113 % of control | [5] 101 % of control | [9] 106 % of control | endpoint: mean survival time, dose: 400.0 mg/kg/injection, schedule: Q01DX009 (ip), vehicle: Klucel (hydroxypropylcellulose) (HPC) 98 % of control | [10] 107 % of control

CCOC(=O)c1[nH]c(C)c(C(=O)OCC)c1C
inactive: endpoint: mean survival time, dose: 50.0 mg/kg/injection, schedule: Q01DX009 (ip), vehicle: Klucel (hydroxypropylcellulose) (HPC) 95 % of control | [4] 95 % of control | [14] 99 % of control | [5] 103 % of control | [15] 102 % of control | endpoint: mean survival time, dose: 400.0 mg/kg/injection, schedule: Q04DX002 (ip), vehicle: saline with Tween-80 102 % of control | endpoint: median survival time, dose: 10.0 mg/kg/injection, schedule: Q04DX002 (ip), vehicle: Klucel (hydroxypropylcellulose) (HPC) 100 % of control | endpoint: median survival time, dose: 200.0 mg/kg/injection, schedule: Q04DX002 (ip), vehicle: Klucel (hydroxypropylcellulose) (HPC) 89 % of control | endpoint: median survival time, dose: 400.0 mg/kg/injection, schedule: Q04DX002 (ip), vehicle: Klucel (hydroxypropylcellulose) (HPC) 107 % of control

CCc1nc(Cl)c(Cl)[nH]1
inactive: endpoint: mean survival time, dose: 100.0 mg/kg/injection, schedule: Q01DX001 (ip), vehicle: saline with Tween-80 107 % of control | endpoint: mean survival time, dose: 200.0 mg/kg/injection, schedule: Q01DX001 (ip), vehicle: saline with Tween-80 103 % of control

CCCCCCCCCCC/C=N\N(C)C
inactive: [11] 96 % of control | [12] 92 % of control | [13] 103 % of control

COc1cc(NC(=O)c2ccc(Cl)cc2Cl)c(OC)cc1Cl
inactive: [6] 90 % of control | [16] 90 % of control | [17] 96 % of control

CCCC(=O)Nc1cc(OC)ccc1OC
inactive: [4] 106 % of control | [5] 97 % of control

CCOC(=O)C1=NN(c2ccccc2)C(=O)C1N=Nc1ccc(S(N)(=O)=O)cc1 (centres undefined)
inactive: [7] 95 % of control | [1] 93 % of control | [2] 93 % of control

CCCCC(CC)CNCC(CC)CCCC (centres undefined)
inactive: endpoint: mean survival time, dose: 25.0 mg/kg/injection, schedule: Q04DX003 (ip), vehicle: carboxymethylcellulose (CMC) 100 % of control | endpoint: mean survival time, dose: 50.0 mg/kg/injection, schedule: Q04DX003 (ip), vehicle: carboxymethylcellulose (CMC) 102 % of control | [3] 97 % of control | endpoint: mean survival time, dose: 100.0 mg/kg/injection, schedule: Q04DX013 (ip), vehicle: carboxymethylcellulose (CMC) 96 % of control

C[C@H](CCC(=O)O)[C@H]1CC[C@H]2[C@@H]3CCC4=C(O)C(=O)CC[C@]4(C)[C@H]3CC(=O)[C@]12C
inactive: endpoint: mean survival time, dose: 100.0 mg/kg/injection, schedule: Q01DX001 (sc), vehicle: steriod suspending solution 101 % of control | endpoint: mean survival time, dose: 200.0 mg/kg/injection, schedule: Q01DX001 (sc), vehicle: steriod suspending solution 98 % of control | endpoint: mean survival time, dose: 400.0 mg/kg/injection, schedule: Q01DX001 (sc), vehicle: steriod suspending solution 103 % of control

COC(=O)c1ccc(OC(=O)Nc2ccc(C)c(NC(=O)Oc3ccc(C(=O)OC)cc3)c2)cc1
inactive: [6] 96 % of control | [16] 96 % of control | [17] 101 % of control
